The source of these data is patent US7153849B2, “Antidepressant arylpiperazine derivatives of hetrocycle-fused benzodioxans” (Wyeth, priority 2002, dated 2006).

Where a name gives a salt, the structure may show the parent alone.

One data set concerns the target T1, human 5HT1A receptors (Homo sapiens, UniProt P08908).
T1 construct: expressed in transfected cells; host or cells: CHO cells
T1 sequence (P08908 1-422): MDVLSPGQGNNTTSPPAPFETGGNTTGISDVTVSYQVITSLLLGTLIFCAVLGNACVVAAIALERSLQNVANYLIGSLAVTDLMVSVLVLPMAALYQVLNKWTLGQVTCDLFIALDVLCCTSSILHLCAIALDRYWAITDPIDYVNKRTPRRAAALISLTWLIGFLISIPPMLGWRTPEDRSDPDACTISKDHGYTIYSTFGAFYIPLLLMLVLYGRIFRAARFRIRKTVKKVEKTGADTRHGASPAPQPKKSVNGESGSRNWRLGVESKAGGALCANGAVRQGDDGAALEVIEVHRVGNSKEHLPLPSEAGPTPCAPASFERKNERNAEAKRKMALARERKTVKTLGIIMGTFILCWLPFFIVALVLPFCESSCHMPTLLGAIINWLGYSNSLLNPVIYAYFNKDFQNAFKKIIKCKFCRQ
Put plainly: [3H] 8-OH-DPAT displacement from 5HT1A receptor in stably transfected CHO cells. The format is binding. The note with it: CHO cells with human 5HT1A; for Ki: read-out: 5HT1A Receptor Affinity Ki. The text has this:
High affinity for the serotonin 5HT1A receptor was established by testing the claimed compound's ability to displace [^3H] 8-OH-DPAT (dipropylamino-tetralin) from the 5HT1A serotonin receptor following a modification of the procedure of Hall et al., J. Neurochem. 44, 1685 (1985) which utilizes CHO cells stably transfected with human 5HT1A receptors.

A further data set addresses T2, serotonin transporter (Rattus norvegicus, UniProt P31652).
T2 construct: displace ^3H-paroxetine from male rat frontal cortical membranes; from tissue; host or cells: male rat frontal cortical membranes
Put plainly: 3H-paroxetine displacement from rat frontal cortical membranes (serotonin transporter affinity). The format is binding. The note with it: for Ki: 3H-paroxetine, male rat frontal cortical membranes, read-out: 5-HT Transporter Affinity Ki.

The target of data set [1] is T3, cloned human 5HT1A receptors (Homo sapiens, UniProt P08908).
T3 construct: expressed in transfected cells
T3 sequence (P08908 1-422): T1 sequence (P08908 1-422)
Put plainly: 35S-GTPγS binding assay, 5HT1A antagonist activity. The format is biochemical. The note with it: for 5HT1A Function Imax: maximum inhibitory effect, vs 8-OH-DPAT, unit assumed; for IC50: reversal of 8-OH-DPAT (antagonist), read-out: 5HT1A Function IC50; for 5HT1A Function Emax / EC50: increase in binding (agonist); for EC50: read-out: 5HT1A Function EC50. Here is the method:
Antagonist activity at 5HT1A receptors was established by using a ^35S-GTPγS binding assay similar to that used by Lazareno and Birdsall (Br. J. Pharmacol. 109:1120, 1993), in which the test compound's ability to affect the binding of ^35S-GTPγS to membranes containing cloned human 5HT1A receptors was determined. Agonists produce an increase in binding whereas antagonists produce no increase but rather reverse the effects of the standard agonist 8-OH-DPAT. The test compound's maximum inhibitory effect is represented as the Imax, while its potency is defined by the IC50.
Background: GTPγS is a poorly hydrolysed GTP analogue; its binding reports G protein activation.

T2 sequence (P31652 whole entry): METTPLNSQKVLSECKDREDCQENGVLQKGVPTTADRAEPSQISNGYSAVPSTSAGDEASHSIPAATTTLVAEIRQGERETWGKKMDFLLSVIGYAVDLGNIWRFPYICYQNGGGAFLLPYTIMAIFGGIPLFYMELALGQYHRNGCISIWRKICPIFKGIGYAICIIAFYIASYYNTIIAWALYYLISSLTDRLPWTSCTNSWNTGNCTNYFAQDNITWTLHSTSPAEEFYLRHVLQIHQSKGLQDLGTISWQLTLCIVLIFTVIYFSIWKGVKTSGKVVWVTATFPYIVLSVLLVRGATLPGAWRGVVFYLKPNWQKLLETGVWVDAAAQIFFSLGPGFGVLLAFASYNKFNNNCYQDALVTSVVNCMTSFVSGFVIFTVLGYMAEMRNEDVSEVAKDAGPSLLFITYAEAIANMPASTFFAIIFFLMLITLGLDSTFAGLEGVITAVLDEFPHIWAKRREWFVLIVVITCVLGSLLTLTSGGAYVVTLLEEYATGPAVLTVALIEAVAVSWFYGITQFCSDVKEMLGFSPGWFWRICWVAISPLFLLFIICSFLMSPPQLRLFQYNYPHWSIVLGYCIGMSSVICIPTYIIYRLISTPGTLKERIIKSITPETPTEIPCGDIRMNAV

For `Cc1ccc2c3c(ccc2n1)OC[C@H](CN1CCCN(c2ccc4cc(C#N)ccc4n2)CC1)O3` [Example 34, 2-(4-{[(2S)-8-Methyl-2,3-dihydro[1,4]dioxino[2,3-f]quinolin-2-yl]methyl}-1,4-diazepan-1-yl)quinoline-6-carbonitrile], the melting point was 80 to 85 °C. On human 5HT1A receptors, the inhibition constant Ki stood at 2.04 nM. At serotonin transporter, the Ki is 1.09 nM.

On to `Cc1ccc2c3c(ccc2n1)OC[C@H](CN1CCN(c2ccc4cc(Cl)ccc4n2)CC1)O3` [Example 14], for which the Ki at human 5HT1A receptors amounted to 214 nM. In addition, in data set [1], the 5HT1A Function Imax stood at 58% and the IC50 was found to be 74.7 nM. For the same molecule, the Ki at serotonin transporter came to 0.65 nM.

In the case of `Cc1nc2ccc3c(c2o1)O[C@@H](CN1CCN(c2ccc4cc(C#N)ccc4n2)CC1)CO3` [Example 26, (2S)-2-[4-(2-Methyl-7,8-dihydro-1,6,9-trioxa-3-aza-cyclopenta[a]naphthalen-8-ylmethyl)-piperazin-1-yl]-quinoline-6-carbonitrile], at human 5HT1A receptors, the Ki stood at 25.1 nM. Moreover, in data set [1], the “5HT1A Function Emax” value was 64 and the EC50 is 700 nM. Also, the Ki on serotonin transporter is 407 nM.

For `Cc1ccc2c3c(ccc2n1)OC[C@H](CN1CCN(c2ccc4cc(C#N)ccc4n2)C[C@H]1C)O3` [Example 20], the Ki on human 5HT1A receptors worked out at 2.85 nM. Moreover, in data set [1], the 5HT1A Function Imax turned out to be 92% and the IC50 is 82.8 nM. Further, the Ki on serotonin transporter turned out to be 688 nM.

Consider `Cc1ccc2c3c(ccc2n1)OC[C@H](CN1CCN(c2coc4ccccc24)CC1)O3` [Example 18, (2S)-2-{[4-(1-benzofuran-3-yl)-1-piperazinyl]methyl}-8-methyl-2,3-dihydro[1,4]dioxino[2,3-f]quinoline], for which the Ki came to 40.3 nM on human 5HT1A receptors and 16 nM at serotonin transporter.

`N#Cc1ccc2nc(N3CCN(C[C@H]4COc5ccc6ncccc6c5O4)CC3)ccc2c1` [Example 24, (2S)-2-[4-(2,3-Dihydro-[1,4]dioxino[2,3-f]quinolin-2-ylmethyl)-piperazin-1-yl]-quinoline-6-carbonitrile]: at human 5HT1A receptors, the Ki was 7.27 nM. For the same molecule, in data set [1], the 5HT1A Function Imax is 58% and the IC50 is 57 nM. Moreover, the Ki at serotonin transporter was found to be 310 nM.

Consider `Cc1ccc2c3c(ccc2n1)OC[C@H](CN1CCN(c2ccc4cc(C#N)ccc4n2)CC1)O3` [Example 15, 2-(4-{[(2S)-8-methyl-2,3-dihydro[1,4]dioxino[2,3-f]quinolin-2-yl]methyl}piperazin-1-yl}quinoline-6-carbonitrile], for which the Ki on human 5HT1A receptors is 3.7 nM; on serotonin transporter, 13.5 nM. Also, the IC50 in data set [1] was found to be 82.5 nM.

Turning to `Cc1ccc2c3c(ccc2n1)OC[C@H](CN1CCN(c2ccc(Cl)cc2)CC1)O3` [Example 2, (2S)-2-{[4-(4-chlorophenyl)piperazin-1-yl]methyl}-8-methyl-2,3-dihydro[1,4]dioxino[2,3-f]quinoline], the Ki at human 5HT1A receptors came to 22.9 nM. Besides, in data set [1], the 5HT1A Function Imax was found to be 26% and the IC50 is 632 nM. The Ki at serotonin transporter amounted to 565 nM.

In turn, `Cc1ccc2c3c(ccc2n1)OC[C@H](CN1CCN(c2cccc4c2OCCO4)CC1)O3` (as salt: fumarate) [Example 7, (2S)-2-{[4-(dihydrobenzo[1,4]dioxin-5-yl)piperazin-1-yl]methyl}-8-methyl-2,3-dihydro[1,4]dioxino[2,3-f]quinoline] had a melting point of 154 to 155 °C.

As for `Cc1ccc2c3c(ccc2n1)OC[C@H](CN1CCN(c2ccc4cc([N+](=O)[O-])ccc4n2)CC1)O3` [Example 13], the Ki at human 5HT1A receptors worked out at 20 nM. In data set [1], the 5HT1A Function Imax turned out to be 70% and the IC50 was determined as 326 nM. The Ki at serotonin transporter stood at 0.25 nM.

On to `Cc1ccc2c3c(ccc2n1)OC[C@H](CN1CCNCC1)O3` [Example 29, 8-Methyl-2-piperazin-1-ylmethyl-2,3-dihydro-[1,4]dioxino[2,3-f]quinoline], for which the Ki on human 5HT1A receptors was 1.26 nM. Also, in data set [1], the 5HT1A Function Imax amounted to 100% and the concentration for half-maximal inhibition (IC50) came out at 1320 nM. Further, on serotonin transporter, the Ki turned out to be 200 nM.

The molecule `COc1ccc2nc(N3CCN(C[C@H]4COc5ccc6nc(C)ccc6c5O4)CC3)ccc2c1` [Example 30, (2S)-2-{[4-(6-methoxyquinolin-2-yl)piperazin-1-yl]methyl]-8-methyl-2,3-dihydro[1,4]dioxino[2,3-f]quinoline] returned a melting point of 158 to 160 °C.

Consider `Cc1ccc2c3c(ccc2n1)OC[C@H](CN1CCN(c2ccc4ccccc4n2)CC1)O3` [Example 12, (2S)-8-methyl-2-[(4-quinolin-2-ylpiprazin-1-yl)methyl]-2,3-dihydro[1,4]dioxino[2,3-f]quinoline], for which, on human 5HT1A receptors, the Ki was 47.3 nM. In addition, in data set [1], the 5HT1A Function Imax was 100% and the IC50 is 3000 nM. For the same molecule, the Ki at serotonin transporter is 48 nM.

For `Cc1ccc2c3c(ccc2n1)OC[C@H](CN1CCN(c2cccc4c2OCCO4)CC1)O3` [Example 7, (2S)-2-{[4-(dihydrobenzo[1,4]dioxin-5-yl)piperazin-1-yl]methyl}-8-methyl-2,3-dihydro[1,4]dioxino[2,3-f]quinoline], the “5HT1A Receptor Affinity, % @ 1 μM” value on human 5HT1A receptors (@ 1 μM) was 91% @ 1 μM. The IC50 in data set [1] was found to be 557 nM. For the same molecule, at serotonin transporter, the Ki is 1.2 nM.

As to `Cc1ccc2c3c(ccc2n1)OC[C@H](CN1CCN(c2ccc4cc([N+](=O)[O-])ccc4n2)CC1)O3` (as salt: salt) [Example 13], the melting point is 200 °C (dec.).

Take `Cc1ccc2c3c(ccc2n1)OC[C@H](CN1CCN(c2coc4ccc(F)cc24)CC1)O3` [Example 17, (2S)-2-{[4-(5-fluoro-1-benzofuran-3-yl)-1-piperazinyl]methyl}-8-methyl-2,3-dihydro[1,4]dioxino[2,3-f]quinoline]: the Ki amounted to 718 nM at human 5HT1A receptors and 74 nM on serotonin transporter.

As for `Cc1ccc2c3c(ccc2n1)OC[C@H](CN1CCN(c2ccc4cc(C(N)=O)ccc4n2)CC1)O3` [Example 23], the Ki on human 5HT1A receptors was found to be 7.21 nM. Also, in data set [1], the 5HT1A Function Imax stood at 71% and the IC50 turned out to be 129 nM. At serotonin transporter, the “5-HT Transporter Affinity, % @ 1 μM” value is given as 56% @ 1 μM.

As for `Cc1ccc2c3c(ccc2n1)OC[C@H](CN1CCN(c2ccc(Cl)c(Cl)c2)CC1)O3` [Example 3, (2S)-2-{[4-(3,4-dichlorophenyl)piperazin-1-yl]methyl}-8-methyl-2,3-dihydro[1,4]dioxine[2,3-f]quinoline], the Ki is 1050 nM on human 5HT1A receptors and 76 nM at serotonin transporter.

Molecule `Cc1ccc2c3c(ccc2n1)OC[C@H](CN1CCN(c2ccc(Cl)c(Cl)c2)CC1)O3` (as salt: fumarate) [Example 3, (2S)-2-{[4-(3,4-dichlorophenyl)piperazin-1-yl]methyl}-8-methyl-2,3-dihydro[1,4]dioxine[2,3-f]quinoline] came in with a melting point of 140 to 144 °C.

`CCc1ccc2c3c(ccc2n1)OC[C@H](CN1CCN(c2ccc4cc(C#N)ccc4n2)CC1)O3` [Example 25, (2S)-2-[4-(8-Ethyl-2,3-dihydro-[1,4]dioxino[2,3-f]quinolin-2-ylmethyl)-piperazin-1-yl]-quinoline-6-carbonitrile]: the Ki at human 5HT1A receptors worked out at 4.74 nM. Besides, in data set [1], the “5HT1A Function Emax” value was 67 and the EC50 stood at 1140 nM. Moreover, on serotonin transporter, the Ki turned out to be 67 nM.

As for `COc1ccc2nc(N3CCCN(C[C@H]4COc5ccc6nc(C)ccc6c5O4)CC3)ccc2c1` [Example 33, (2S)-2-{[4-(6-methoxyquinolin-2-yl)-1,4-diazepan-1-yl]methyl]-8-methyl-2,3-dihydro[1,4]dioxino[2,3-f]quinoline], on human 5HT1A receptors, the Ki amounted to 1.75 nM. Besides, in data set [1], the 5HT1A Function Imax was determined as 92% and the IC50 worked out at 316 nM. On serotonin transporter, the Ki amounted to 7.3 nM.

`Cc1ccc2c3c(ccc2n1)OC[C@H](CN1CCN(c2ccc4ccccc4n2)CC1)O3` (as salt: hydrochloride) [Example 12, (2S)-8-methyl-2-[(4-quinolin-2-ylpiprazin-1-yl)methyl]-2,3-dihydro[1,4]dioxino[2,3-f]quinoline]: the melting point lay within 237 to 243 °C.

Regarding `Cc1ccc2c3c(ccc2n1)OC[C@H](CN1CCN(c2ccc4ccccc4c2)CC1)O3` [Example 22, (2S)-8-methyl-2-{[4-(2-naphthyl)piperazin-1-yl]methyl}-2,3-dihydro[1,4]dioxino[2,3-f]quinoline], the inhibition constant (Ki) on human 5HT1A receptors came out at 53.2 nM. Further, in data set [1], the 5HT1A Function Imax turned out to be 76% and the IC50 was determined as 4540 nM. The Ki on serotonin transporter turned out to be 19.8 nM.

As usually defined, the Ki is the dissociation constant of the complex between target and ligand, obtained from inhibition or displacement. The term melting point denotes the temperature, or range, at which the solid turns liquid. The IC50 is the concentration that gives 50% inhibition. The EC50 is the concentration giving half of the maximal effect.
